Like-named read-outs stand apart in the source and are kept apart here. *1 amine or outer side, *2 acyl side, *3 side chain or, on linkers, in order; H or OH if unused. Where a SMILES comes first, the peptide text is derived from it. Side-chain parts run from the residue outwards. [ ]: non-standard residue; d: D form. The star is where a group is joined. αMePhe(2-F) = C[C@](N)(Cc1ccccc1F)C(=O)O; γGlu = O=C(O)[C@H](CCC(=O)[*:2])N[*:1]; C14 diacid = O=C(O)CCCCCCCCCCCCC(=O)*; αMeY = C[C@](N)(Cc1ccc(O)cc1)C(=O)O; 4Pal = N[C@@H](Cc1ccncc1)C(=O)O; αMeL = CC(C)C[C@](C)(N)C(=O)O; Orn = NCCC[C@H](N)C(=O)O; AEEA = NCCOCCOCC(=O)O; Aib = CC(C)(N)C(=O)O
How the values were obtained:
Assay type in all cases: cell-based
hGCGR = biological target: T1, hGCGR (Homo sapiens, UniProt P47871); assay: Functional cAMP formation (HTRF) in HEK-293 clonal cells expressing hGCGR, 0.1% bovine casein, without or with 1.0% human serum albumin
T1 construct: expressed in transfected cells
In short: (§1)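 Cells were stimulated with peptide for 30 min at 37° C, then intracellular cAMP was measured by competitive HTRF (665/620 nm ratio) and converted to nM using a cAMP standard curve. Relative EC50 and Emax came from four-parameter logistic fits of percent maximal response against peptide concentration.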

hGLP-1R = hGLP-1R (Homo sapiens, UniProt P43220); assay: Functional cAMP formation (HTRF) in HEK-293 clonal cells expressing hGLP-1R, 0.1% bovine casein, without or with 1.0% human serum albumin; set-up: expressed in transfected cells; settings: for EC50: geometric mean
In short: as §1

hGIPR = biological target: T2, hGIPR (Homo sapiens, UniProt P48546); assay: Functional cAMP formation (HTRF) in HEK-293 clonal cells expressing hGIPR, 0.1% bovine casein, without or with 1.0% human serum albumin; settings: for EC50: geometric mean; for Emax: read-out: hGIPR Emax, % ± SEM
T2 construct: expressed in transfected cells
T2 sequence (P48546 22-466): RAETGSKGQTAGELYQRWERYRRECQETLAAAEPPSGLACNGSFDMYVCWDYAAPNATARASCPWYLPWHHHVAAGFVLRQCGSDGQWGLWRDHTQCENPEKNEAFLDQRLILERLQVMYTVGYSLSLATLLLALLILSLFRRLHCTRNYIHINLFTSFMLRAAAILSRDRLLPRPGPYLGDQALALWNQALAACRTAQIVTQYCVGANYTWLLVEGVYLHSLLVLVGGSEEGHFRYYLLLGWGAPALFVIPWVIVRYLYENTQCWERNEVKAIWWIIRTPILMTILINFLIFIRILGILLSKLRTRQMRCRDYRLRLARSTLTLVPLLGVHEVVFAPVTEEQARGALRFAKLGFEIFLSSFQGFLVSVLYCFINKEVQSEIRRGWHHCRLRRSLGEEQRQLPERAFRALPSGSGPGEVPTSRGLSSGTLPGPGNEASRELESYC
In short: as §1

[1] = cAMP, incubated at 37° C., 0.1% bovine casein (no human serum albumin), geometric mean, read-out: hGCGR EC50, nM (SEM, n)
[2] = HEK293, percent of maximal response to GIP(1-42)NH2, 37° C., 0.1% bovine casein, arithmetic mean

Sequence of hGLP-1R (P43220 24-463): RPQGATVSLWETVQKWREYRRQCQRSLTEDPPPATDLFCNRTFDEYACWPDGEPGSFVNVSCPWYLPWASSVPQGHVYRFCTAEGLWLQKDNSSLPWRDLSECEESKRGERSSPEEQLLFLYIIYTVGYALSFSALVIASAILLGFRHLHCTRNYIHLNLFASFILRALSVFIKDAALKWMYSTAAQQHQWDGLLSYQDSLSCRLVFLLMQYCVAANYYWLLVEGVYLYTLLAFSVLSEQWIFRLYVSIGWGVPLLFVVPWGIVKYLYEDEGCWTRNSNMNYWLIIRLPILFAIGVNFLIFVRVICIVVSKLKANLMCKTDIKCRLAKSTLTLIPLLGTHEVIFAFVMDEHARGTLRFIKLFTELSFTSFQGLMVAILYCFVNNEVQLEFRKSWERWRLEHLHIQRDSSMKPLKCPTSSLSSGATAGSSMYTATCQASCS
T1 sequence (P47871 26-477): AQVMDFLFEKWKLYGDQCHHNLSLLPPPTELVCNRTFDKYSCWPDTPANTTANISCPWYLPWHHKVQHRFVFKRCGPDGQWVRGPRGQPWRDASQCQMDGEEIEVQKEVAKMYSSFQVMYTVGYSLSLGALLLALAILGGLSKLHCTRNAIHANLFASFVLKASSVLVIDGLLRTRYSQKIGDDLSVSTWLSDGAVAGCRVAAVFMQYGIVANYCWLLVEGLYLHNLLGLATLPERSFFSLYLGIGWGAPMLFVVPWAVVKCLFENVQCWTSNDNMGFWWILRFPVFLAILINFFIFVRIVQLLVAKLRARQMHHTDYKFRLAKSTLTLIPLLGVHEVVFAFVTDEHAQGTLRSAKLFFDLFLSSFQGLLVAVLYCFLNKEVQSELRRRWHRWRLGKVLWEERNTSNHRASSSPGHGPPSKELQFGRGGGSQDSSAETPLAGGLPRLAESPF

CC[C@H](C)[C@H](NC(=O)[C@H](CC(C)C)NC(=O)[C@](C)(Cc1ccc(O)cc1)NC(=O)[C@@H](CCC(=O)O)NC(=O)[C@@H](NC(=O)[C@H](Cc1ccccc1)NC(=O)[C@H](CCC(=O)O)NC(=O)C(C)(C)NC(=O)[C@H](CCC(N)=O)NC(=O)[C@H](C)NC(=O)[C@H](CCCCNC(=O)COCCOCCNC(=O)[C@@H](N)CCCCNC(=O)CC[C@H](NC(=O)CCCCCCCCCCCCC(=O)O)C(=O)O)NC(=O)[C@H](CCCN)NC(=O)[C@H](CC(=O)O)NC(=O)[C@H](CC(C)C)NC(=O)[C@](C)(CC(C)C)NC(=O)[C@@H](NC(=O)[C@H](CO)NC(=O)[C@H](Cc1ccncc1)NC(=O)[C@H](CC(=O)O)NC(=O)[C@H](CO)NC(=O)[C@@H](NC(=O)[C@](C)(Cc1ccccc1F)NC(=O)[C@@H](NC(=O)CNC(=O)[C@H](CCC(=O)O)NC(=O)C(C)(C)NC(=O)[C@@H](N)Cc1ccc(O)cc1)[C@@H](C)O)[C@@H](C)O)[C@@H](C)CC)[C@@H](C)CC)C(=O)N[C@@H](CCC(=O)O)C(=O)NCC(=O)NCC(=O)N[C@@H](CCCCNC(=O)COCCOCCNC(=O)[C@@H](N)CCCCNC(=O)CC[C@H](NC(=O)CCCCCCCCCCCCC(=O)O)C(=O)O)C(=O)N[C@@H](CO)C(=O)N[C@@H](CO)C(=O)NCC(=O)N[C@@H](C)C(=O)N1CCC[C@H]1C(=O)N1CCC[C@H]1C(=O)N1CCC[C@H]1C(=O)N[C@@H](CO)C(N)=O [Example 35]
EC50 (hGCGR; 0.1% bovine casein and 1.0% human serum albumin, 37° C., geometric mean, read-out: hGCGR EC50, nM (SEM, n)): > 9950 nM
EC50 (hGCGR; [1]): > 9950 nM
EC50 (hGLP-1R; 0.1% bovine casein and 1.0% human serum albumin, 37° C., read-out: hGLP-1R EC50, nM (SEM, n)): 16.4 nM
EC50 (hGIPR; 0.1% bovine casein and 1.0% human serum albumin, 37° C., read-out: hGIPR EC50, nM (SEM, n)): 0.35 nM
Emax (hGIPR; HEK293, 0.1% bovine casein and 1.0% human serum albumin, 37° C., percent of maximal response to GIP(1-42)NH2): 91.7 ± 1.28%
Emax (hGIPR; [2]): 97 ± 2.32%
EC50 (hGIPR; cAMP, incubated at 37° C., 0.1% bovine casein (no human serum albumin), read-out: hGIPR EC50, nM (SEM, n)): 0.0162 nM

CC[C@H](C)[C@H](NC(=O)[C@H](CC(C)C)NC(=O)[C@](C)(Cc1ccc(O)cc1)NC(=O)[C@H](CCCCNC(=O)COCCOCCNC(=O)COCCOCCNC(=O)CC[C@H](NC(=O)CCCCCCCCCCCCC(=O)O)C(=O)O)NC(=O)[C@@H](NC(=O)[C@](C)(Cc1ccccc1)NC(=O)[C@H](CCC(=O)O)NC(=O)C(C)(C)NC(=O)[C@H](CCC(N)=O)NC(=O)[C@H](C)NC(=O)[C@H](CCCCNC(=O)COCCOCCNC(=O)COCCOCCNC(=O)CC[C@H](NC(=O)CCCCCCCCCCCCC(=O)O)C(=O)O)NC(=O)[C@H](CCCN)NC(=O)[C@H](CC(=O)O)NC(=O)[C@H](CC(C)C)NC(=O)[C@](C)(CC(C)C)NC(=O)[C@@H](NC(=O)C(C)(C)NC(=O)[C@@H](NC(=O)[C@H](CC(=O)O)NC(=O)[C@H](CO)NC(=O)[C@@H](NC(=O)[C@](C)(Cc1ccccc1F)NC(=O)[C@@H](NC(=O)CNC(=O)[C@H](CCC(=O)O)NC(=O)C(C)(C)NC(=O)[C@@H](N)Cc1ccc(O)cc1)[C@@H](C)O)[C@@H](C)O)C(C)C)[C@@H](C)CC)[C@@H](C)CC)C(=O)N[C@@H](CCC(=O)O)C(=O)NCC(=O)NCC(=O)N1CCC[C@H]1C(=O)N[C@@H](CO)C(=O)N[C@@H](CO)C(=O)NCC(=O)N[C@@H](C)C(=O)N1CCC[C@H]1C(=O)N1CCC[C@H]1C(=O)N1CCC[C@H]1C(=O)N[C@@H](CO)C(N)=O [Example 119]
EC50 (hGCGR; hGCGR EC50, nM (SEM, n), cAMP, incubated at 37° C., 0.1% bovine casein (no human serum albumin), geometric mean): > 9950 nM
Emax (hGLP-1R; HEK293, read-out: hGLP-1R Emax, % ± SEM, percent of maximal response to GLP-1(7-36)NH2, 37° C., 0.1% bovine casein, arithmetic mean): 99.4%
EC50 (hGLP-1R; hGLP-1R EC50, nM (SEM, n), cAMP, incubated at 37° C., 0.1% bovine casein (no human serum albumin)): 0.351 nM
EC50 (hGIPR; hGIPR EC50, nM (SEM, n), cAMP, incubated at 37° C., 0.1% bovine casein (no human serum albumin)): 0.0863 nM

CCCCCCCCCCCC(=O)N[C@@H](CCC(=O)NCCOCCOCC(=O)NCCOCCOCC(=O)NCCCC[C@H](NC(=O)CNC(=O)CNC(=O)[C@H](CCC(=O)O)NC(=O)[C@@H](NC(=O)[C@H](CC(C)C)NC(=O)[C@](C)(Cc1ccc(O)cc1)NC(=O)[C@@H](CCC(=O)O)NC(=O)[C@@H](NC(=O)[C@H](Cc1ccccc1)NC(=O)[C@H](CCC(=O)O)NC(=O)C(C)(C)NC(=O)[C@H](CCC(N)=O)NC(=O)[C@H](C)NC(=O)[C@H](CCCCNC(=O)COCCOCCNC(=O)COCCOCCNC(=O)CC[C@H](NC(=O)CCCCCCCCCCC)C(=O)O)NC(=O)[C@H](CCCN)NC(=O)[C@H](CC(=O)O)NC(=O)[C@H](CC(C)C)NC(=O)[C@](C)(CC(C)C)NC(=O)[C@@H](NC(=O)C(C)(C)NC(=O)[C@@H](NC(=O)[C@H](CC(=O)O)NC(=O)[C@H](CO)NC(=O)[C@@H](NC(=O)[C@](C)(Cc1ccccc1F)NC(=O)[C@@H](NC(=O)CNC(=O)[C@H](CCC(=O)O)NC(=O)C(C)(C)NC(=O)[C@@H](N)Cc1ccc(O)cc1)[C@@H](C)O)[C@@H](C)O)C(C)C)[C@@H](C)CC)[C@@H](C)CC)[C@@H](C)CC)C(=O)N[C@@H](CO)C(=O)N[C@@H](CO)C(=O)NCC(=O)N[C@@H](C)C(=O)N1CCC[C@H]1C(=O)N1CCC[C@H]1C(=O)N1CCC[C@H]1C(=O)N[C@@H](CO)C(N)=O)C(=O)O [Example 175]
EC50 (hGCGR; [1]): > 9950 nM
Emax (hGLP-1R; HEK293, percent of maximal response to GLP-1(7-36)NH2, 37° C., 0.1% bovine casein, arithmetic mean, read-out: hGLP-1R Emax, % ± SEM): 91.1%
EC50 (hGLP-1R; cAMP, incubated at 37° C., 0.1% bovine casein (no human serum albumin), read-out: hGLP-1R EC50, nM (SEM, n)): 0.227 nM
Emax (hGIPR; [2]): 100%

CC[C@H](C)[C@H](NC(=O)[C@H](CCCN)NC(=O)[C@H](CC(=O)O)NC(=O)[C@H](CC(C)C)NC(=O)[C@](C)(CC(C)C)NC(=O)[C@@H](NC(=O)C(C)(C)NC(=O)[C@H](Cc1ccncc1)NC(=O)[C@H](CC(=O)O)NC(=O)[C@H](CO)NC(=O)[C@@H](NC(=O)[C@](C)(Cc1ccccc1F)NC(=O)[C@@H](NC(=O)CNC(=O)[C@H](CCC(=O)O)NC(=O)C(C)(C)NC(=O)[C@@H](N)Cc1ccc(O)cc1)[C@@H](C)O)[C@@H](C)O)[C@@H](C)CC)C(=O)N[C@@H](C)C(=O)N[C@@H](CCC(N)=O)C(=O)NC(C)(C)C(=O)N[C@@H](CCCCNC(=O)COCCOCCNC(=O)CC[C@H](NC(=O)CCCCCCCCCCCCC(=O)O)C(=O)O)C(=O)N[C@@H](Cc1ccccc1)C(=O)N[C@H](C(=O)N[C@H](CCC(=O)O)C(=O)N[C@@](C)(Cc1ccc(O)cc1)C(=O)N[C@@H](CC(C)C)C(=O)N[C@H](C(=O)N[C@@H](CCC(=O)O)C(=O)NCC(=O)NCC(=O)N1CCC[C@H]1C(=O)N[C@@H](CO)C(=O)N[C@@H](CO)C(=O)NCC(=O)N[C@@H](C)C(=O)N1CCC[C@H]1C(=O)N1CCC[C@H]1C(=O)N1CCC[C@H]1C(=O)N[C@@H](CO)C(=O)N[C@@H](CCCCNC(=O)COCCOCCNC(=O)CC[C@H](NC(=O)CCCCCCCCCCCCC(=O)O)C(=O)O)C(N)=O)[C@@H](C)CC)[C@@H](C)CC [Example 341] (H-Y[Aib]EGT[αMePhe(2-F)]TSD[4Pal][Aib]I[αMeL]LD[Orn]IAQ[Aib]K([AEEA-γGlu-C14 diacid])FI[dE][αMeY]LIEGGPSSGAPPPSK([AEEA-γGlu-C14 diacid])-NH2)
EC50 (hGCGR; cAMP, 37° C., 0.1% bovine casein (no human serum albumin), geometric mean, read-out: hGCGR EC50, nM (SEM, n)): > 9950 nM
EC50 (hGCGR; cAMP, 37° C., 0.1% bovine casein and 1.0% human serum albumin, geometric mean (SEM, n), read-out: hGCGR EC50, nM (SEM, n)): > 9950 nM
Emax (hGLP-1R; HEK293, cAMP, 37° C., 0.1% bovine casein and 1.0% human serum albumin, percent of maximal response to GLP-1(7-36)NH2, read-out: hGLP-1R Emax, % ± SEM): 113%
EC50 (hGLP-1R; cAMP, 37° C., 0.1% bovine casein (no human serum albumin), read-out: hGLP-1R EC50, nM (SEM, n)): 0.329 nM
Emax (hGIPR; HEK293, cAMP, 37° C., 0.1% bovine casein and 1.0% human serum albumin, percent of maximal response to GIP(1-42)NH2): 83.6%
Emax (hGIPR; HEK293, cAMP, 37° C., 0.1% bovine casein, percent of maximal response to GIP(1-42)NH2, arithmetic mean): 91.4%
EC50 (hGIPR; cAMP, 37° C., 0.1% bovine casein (no human serum albumin), read-out: hGIPR EC50, nM (SEM, n)): 0.0127 nM

— patent publication US20230265151A1, “GIP/GLP1 CO-AGONIST COMPOUNDS” (priority 2020, published 2023)
